Measurements as given in patent EP4714468A1, “METHOD FOR ADMINISTERING MODULATOR TARGETING S1PR1 AND S1PR4” (priority 2023, dated 2024).
Like-named read-outs stand apart in the source and are kept apart here.

Columns and labels:
[1] = Phase 1 clinical trial, single ascending dose (SAD): safety and tolerability; parameters: species or system healthy adult males; conditions: in vivo
Experimental: (§1) A randomized, double-blind, placebo-controlled, step-escalation, single- and multiple-dose phase 1 clinical trial was conducted to evaluate the safety, tolerability, and pharmacokinetic/pharmacodynamic characteristics of a compound of Chemical Formula 1 (NXC736) after oral administration to healthy adult males.
The clinical trial drug product is a white, round, film-coated tablet (1 mg, 3 mg tablet) or a yellow, round, film-coated tablet (10, 20 mg, 40 mg, 60 mg, 80 mg tablet) containing the active ingredient (main ingredient) NXC736 and excipients such as diluents, binders, disintegrants, fluidizing agents and glidants. The NXC736 clinical trial drug product was manufactured as an 84 mg film-coated tablet containing 1 mg or 3 mg of the main ingredient, or a 334 mg film-coated tablet containing 10 mg, 20 mg, 40 mg, 60 mg or 80 mg of the main ingredient, and it can be stored at room temperature (1 to 30°C) in an airtight container.
In this clinical trial, a total of 42 subjects were randomly assigned to a single-administration, and a total of 39 subjects completed the study according to the clinical trial protocol. A total of 33 subjects were assigned to a repeated-administration trial, and a total of 32 subjects completed the study according to the clinical trial protocol.
(§2) The subjects were administered a single oral dose of the clinical trial drug on an empty stomach at around 9:00 AM on the day of administration after fasting for at least 10 hours. In the single-administration trial, the subjects were administered the drug and hospitalized for 8 days. After discharge, they were observed through outpatient visits until day 21. Blood was collected once before administration and at regular intervals after administration, and hematological tests were performed.

[2] = test system: absolute lymphocyte count (ALC); test: Phase 1 clinical trial, single administration: pharmacodynamics by hematological test; assay type: in vivo, healthy adult males
Experimental: as §1, §2

[3] = Phase 1 clinical trial, single administration: pharmacokinetics; assay type: in vivo, healthy adult males
Experimental: as §1, §2

[4] = test system: Sphingosine-1 Phosphate (S1P) receptor; conditions: background art statement; cited from earlier work
[5] = test system: lymphocyte-mediated diseases; conditions: alopecia areata, inflammatory bowel disease, interstitial fibrosis and tubular atrophy, focal segmental glomerulosclerosis; Korean patents; cited from earlier work
[6] = Phase 1 clinical trial, repeated administration: pharmacokinetics; assay type: in vivo, healthy adult males
Experimental: as §1
(§3) The subjects fasted for at least 10 hours before the first administration. Afterwards, the clinical trial drug was administered orally twice a day for 13 days and once on day 14 in a fasting state at around 9:00 AM and 9:00 PM. The administration was performed twice a day for approximately 14 days, and the subjects were discharged on day 21 from the first administration and observed through outpatient visits until day 36. Blood was collected once before administration and at regular intervals after administration, and hematological tests were performed.

[7] = test system: lymphocytes in the peripheral blood stream; test: Absolute lymphocyte count suppression in healthy rats; assay type: in vivo, SD rats
[8] = test system: absolute lymphocyte count (ALC); test: Phase 1 clinical trial, repeated administration: pharmacodynamics by hematological test; assay type: in vivo, healthy adult males
Experimental: as §1, §3

[9] = test system: alopecia areata lesion area; test: C3H/HeJ alopecia areata mouse model; assay type: in vivo, C3H/HeJ mice; conditions: 3 mg/kg or 10 mg/kg oral twice a day, 12 weeks
Experimental: The efficacy of NXC736 on alopecia areata was evaluated by using the alopecia areata mouse model C3H/HeJ (Jackson Lab, Saeron Bio).
C3H/HeJ mice, 10 to 16 weeks of age, in which alopecia areata was not induced, were divided into two groups: a control group (sterile distilled water administration group) and an NXC736 administration experimental group, and 5 mice per group were randomly assigned. After the lymph node cells were proliferated and injected into the C3H/HeJ mice, the NXC736 administration experimental group was orally administered with 3 mg/kg or 10 mg/kg of NXC736, and the control group was orally administered with the same volume of sterile distilled water twice a day at the same time for 12 weeks. The alopecia areata lesion area and disease free ratio were measured at two-week intervals. The animal breeding room was maintained at a temperature of 23±3°C, a relative humidity of 50±10%, and a 12-hour light and dark cycle, and the experimental animals were bred in isolation boxes (ThreeShine) and were given experimental animal feed and water ad libitum.
After 12 weeks, the circular alopecia lesion area was photographed and quantified by using the Image J program (Version 1.44p).

[10] = in vivo
T lymphocytes = conditions: through the suppression of T lymphocytes; cited from earlier work

## CCCCCCCCCCn1cc(CCC(N)(CO)CO)nn1 [NXC736]
[1]
  adverse reactions (ADR) assessed as having a causal relationship with the investigational drug: 12
  adverse reactions (number of events): 23
  decrease in heart rate after administration: observed in most subjects administered NXC736
  difference in frequency of adverse reactions between dose groups: no significant difference in the frequency of adverse reactions between the dose groups
  serious adverse reactions: No serious adverse reactions were observed
  severity and outcome of adverse reactions: Most adverse reactions were mild and all recovered during the trial period
  subjects with adverse reactions: 9
[2]; single administration 1 mg
  change in ALC: 16%
[2]; single administration 3 mg
  change in ALC: 27%
[2]; single administration 10 mg
  change in ALC: 27%
[2]; single administration 20 mg
  change in ALC: 25%
[2]; single administration 40 mg
  absolute lymphocyte count after administration compared to before administration: about 68%
[2]; single administration 80 mg
  absolute lymphocyte count after administration compared to before administration: about 54%
[3]
  elimination in urine: hardly eliminated in urine
[3]; human, in vivo, po, read-out: average elimination half-life (converted)
  half-life: ~10 h
[3]; human, plasma, po, read-out: time to reach peak plasma concentrations
  Tmax: ~1 h
[4]
  binding selectivity among S1P receptor subtypes: selectively binds to S1P1 and S1P4
[5]
  treatment of lymphocyte-mediated diseases in animal experiments: effectively treat
[6]; repeated administration
  accumulation at steady state compared to the first administration: approximately twice
[6]; repeated administrations
  dose proportionality of Cmax,ss and AUCtau,ss: confirmed
[7]; 5 mg/kg oral twice a day, 4 hours after the first administration
  lymphocytes suppressed by: up to 78%
[7]; 5 mg/kg oral twice a day, 4 hours after the second administration (16 hours after the first)
  lymphocytes suppressed by: approximately 90%
[7]; 5 mg/kg oral twice a day, 24 hours
  lymphocytes recovered to: approximately 50%
[7]; 10 mg/kg oral twice a day, 4 hours after the first administration
  lymphocytes suppressed by: up to 83%
[7]; 10 mg/kg oral twice a day, 4 hours after the second administration (16 hours after the first)
  lymphocytes suppressed by: up to 94%
[7]; 10 mg/kg oral twice a day, up to 24 hours
  lymphocyte suppression effect maintained: about 80%
[7]; 10 mg/kg oral twice a day, up to 36 hours
  lymphocyte suppression effect maintained: about 70%
[7]; 20 mg/kg oral once a day, 12 hours
  lymphocytes suppressed by: up to 92%
[7]; 20 mg/kg oral once a day, 24 hours
  lymphocytes recovered to: 60%
[7]; 20 mg/kg oral once a day, 48 hours
  lymphocytes recovered to: 100%
[7]; 5 or 10 mg/kg BID vs 20 mg/kg QD
  lymphocyte suppression effect, twice a day vs once a day: superior when administered twice a day even at a lower dose compared to when administered once a day
[8]; 20 mg twice daily, 14-day repeated administration
  change in ALC: ≤ 30%
[8]; 40 mg to 80 mg, repeated administrations twice a day
  ALC reduction effect: ≥ 50%
[8]; 60 mg twice-daily administration group or higher, 14 days
  absolute lymphocyte count decrease: up to 70%
[8]; repeated administrations 40 mg
  absolute lymphocyte count after administration compared to before administration: about 43%
[8]; repeated administrations 60 mg
  absolute lymphocyte count after administration compared to before administration: about 32%
[8]; repeated administrations 80 mg
  absolute lymphocyte count after administration compared to before administration: about 36%
[9]
  circular alopecia lesion area compared to control group: effectively reduced
  dose dependence of therapeutic effect on alopecia lesion area: concentration-dependent therapeutic effect was observed
[10]
  serious adverse reactions: No serious adverse reactions were observed

## C=CC(=O)N1C[C@H](Nc2ncnc3[nH]ccc23)CC[C@@H]1C [Ritlecitinib]
T lymphocytes
  therapeutic effect on alopecia areata: show a therapeutic effect on alopecia areata
